Measured values as given in the supplement of paper PMC13380429.

Experiments:
Settings in all cases: 72 h
Caco-2 [1] = experiment: drug sensitivity score (DSS) for viability; higher = more toxic; extreme values may be limits of the assay
Vero E6 [2] = experiment: as above
HepG2 [3] = experiment: as above
U2OS [4] = experiment: as above
Calu-3 [5] = experiment: as above
Caco-2 [6] = experiment: relative viability EC50 (midpoint between 100% and the lowest measured viability); higher = less toxic
Vero E6 [7] = experiment: as above
HepG2 [8] = experiment: as above
U2OS [9] = experiment: as above
Calu-3 [10] = experiment: as above
Caco-2 [11] = experiment: cell viability relative to DMSO; higher = less toxic
Vero E6 [12] = experiment: as above
HepG2 [13] = experiment: as above
U2OS [14] = experiment: as above
Calu-3 [15] = experiment: as above

| Structure (SMILES) | drug sensitivity score (Caco-2 [1]) | drug sensitivity score (Vero E6 [2]) | drug sensitivity score (HepG2 [3]) | drug sensitivity score (U2OS [4]) | drug sensitivity score (Calu-3 [5]) | relative viability EC50 (Caco-2 [6]) | relative viability EC50 (Vero E6 [7]) | relative viability EC50 (HepG2 [8]) | relative viability EC50 (U2OS [9]) | relative viability EC50 (Calu-3 [10]) | cell viability (Caco-2 [11]; 1 nM) | cell viability (Caco-2 [11]; 10 nM) | cell viability (Caco-2 [11]; 100 nM) | cell viability (Caco-2 [11]; 1000 nM) | cell viability (Caco-2 [11]; 10000 nM) | cell viability (Vero E6 [12]; 1 nM) | cell viability (Vero E6 [12]; 10 nM) | cell viability (Vero E6 [12]; 100 nM) | cell viability (Vero E6 [12]; 1000 nM) | cell viability (Vero E6 [12]; 10000 nM) | cell viability (HepG2 [13]; 1 nM) | cell viability (HepG2 [13]; 10 nM) | cell viability (HepG2 [13]; 100 nM) | cell viability (HepG2 [13]; 1000 nM) | cell viability (HepG2 [13]; 10000 nM) | cell viability (U2OS [14]; 1 nM) | cell viability (U2OS [14]; 10 nM) | cell viability (U2OS [14]; 100 nM) | cell viability (U2OS [14]; 1000 nM) | cell viability (U2OS [14]; 10000 nM) | cell viability (Calu-3 [15]; 1 nM) | cell viability (Calu-3 [15]; 10 nM) | cell viability (Calu-3 [15]; 100 nM) | cell viability (Calu-3 [15]; 1000 nM) | cell viability (Calu-3 [15]; 10000 nM) |
| --- | --- | --- | --- | --- | --- | --- | --- | --- | --- | --- | --- | --- | --- | --- | --- | --- | --- | --- | --- | --- | --- | --- | --- | --- | --- | --- | --- | --- | --- | --- | --- | --- | --- | --- | --- |
| C[C@@H]([C@@H](O)c1ccc(O)cc1)N1CCC(O)(c2ccccc2)CC1 [traxoprodil] | 0 | 0 | 0 | 0 | 0 | > 10 µM | > 10 µM | > 10 µM | > 10 µM | > 10 µM | 100% | 100% | 92.6% | 99.8% | 97% | 98.2% | 95.3% | 95.7% | 100% | 98.7% | 98.1% | 91.4% | 104% | 107% | 101% | 100% | 100% | 96.1% | 110% | 101% | 98.9% | 94.3% | 93.3% | 109% | 108% |
| CC(CN(C)C)CN1c2ccccc2CCc2ccccc21 (stereo not given) [trimipramine] | 0 | 0 | 0 | 0 | 0 | > 10 µM | > 10 µM | > 10 µM | > 10 µM | > 10 µM | 95.6% | 87.1% | 98% | 102% | 93.7% | 103% | 101% | 97.6% | 96.8% | 89.8% | 103% | 104% | 94.3% | 101% | 89.7% | 98.7% | 96.4% | 102% | 98.1% | 97.1% | 92.3% | 101% | 105% | 105% | 89.4% |
| COc1cc(C(=S)N2CCOCC2)ccc1O [vanitiolide] | 0 | 0 | 0 | 0 | 0 | > 10 µM | > 10 µM | > 10 µM | > 10 µM | > 10 µM | 87.7% | 92.9% | 102% | 106% | 97.6% | 97.2% | 91.6% | 93.4% | 95.2% | 105% | 99.8% | 92.8% | 97.2% | 102% | 109% | 104% | 99.5% | 95.4% | 98.7% | 101% | 108% | 108% | 99.1% | 98.4% | 104% |
| CCC1=C[C@@H]2CN(C1)Cc1c([nH]c3ccccc13)[C@@](C(=O)OC)(c1cc3c(cc1OC)N(C)[C@H]1[C@@](O)(C(=O)OC)[C@H](OC(C)=O)[C@]4(CC)C=CCN5CC[C@]31[C@@H]54)C2 [vinorelbine] | 15.3 | 9.2 | 17.5 | 15.2 | 12.6 | 0.0465 µM | 0.754 µM | 0.0659 µM | 0.205 µM | 0.137 µM | 98.1% | 94.7% | 58.7% | 53% | 45.1% | 104% | 101% | 99.5% | 54% | 31.2% | 103% | 92.8% | 58.6% | 32.7% | 39% | 95.8% | 97% | 77.5% | 32.4% | 22.7% | 97.5% | 100% | 72.2% | 51.1% | 40.5% |
| O=C(NCCNCC(O)COc1ccc(O)cc1)N1CCOCC1 (stereo not given) [xamoterol] | 0 | 0 | 0 | 0 | 0 | > 10 µM | > 10 µM | > 10 µM | > 10 µM | > 10 µM | 95.8% | 96.7% | 99.9% | 90.3% | 99.5% | 93.8% | 98.5% | 98% | 98.5% | 95.7% | 99.1% | 99.4% | 96.2% | 102% | 102% | 99.7% | 91.3% | 96.5% | 99.1% | 101% | 106% | 104% | 110% | 100% | 93.6% |
| Cc1ncc(-c2csc(N=C(N)N)n2)[nH]1 [zaltidine] | 0 | 0 | 0 | 0 | 0 | > 10 µM | > 10 µM | > 10 µM | > 10 µM | > 10 µM | 101% | 99% | 92.3% | 92.5% | 109% | 99.6% | 92.6% | 87.3% | 94.2% | 107% | 105% | 105% | 101% | 94.5% | 107% | 104% | 97.9% | 97.8% | 104% | 106% | 108% | 96% | 99.2% | 103% | 103% |
| CC(c1cc2ccccc2s1)N(O)C(N)=O (stereo not given) [zileuton] | 0 | 0 | 0 | 0 | 0 | > 10 µM | > 10 µM | > 10 µM | > 10 µM | > 10 µM | 93.7% | 96.3% | 93.3% | 100% | 91% | 103% | 105% | 107% | 101% | 99.7% | 109% | 95.1% | 101% | 94.2% | 102% | 97.1% | 98.7% | 96.9% | 102% | 96.4% | 89.5% | 90.6% | 102% | 96.1% | 94.6% |
